These results are taken from patent publication US9676760B2, “Fused heterocyclic compounds as ion channel modulators” (Gilead Sciences, Inc., priority 2011, dated 2017).

The target in the experiment is wild-type human cardiac sodium channel, hNav1.5 (Homo sapiens, UniProt Q14524). Put plainly: Late INa screening assay (QPatch whole cell patch clamp, HEK293). It counts as cell-based. As to conditions: HEK293, percent block of late INa; compound at 1 μM; 10 μM Tefluthrin; read-out: Late INa 1 μM. Summed up:
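HEK293 stably expressing hNav1.5 without beta subunits, recorded at 23-25° C. Late current was induced by 10 μM tefluthrin. Cells were depolarized from −120 mV to −20 mV for 250 ms at 0.1 Hz. Compounds were tested at 1 μM in extracellular solution, with baseline taken in 0Na-ECF; output is percent block of late INa.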
Background: In patch-clamp work, channel activity is measured electrically.

Molecules are shown by their SMILES.

Chain of wild-type human cardiac sodium channel, hNav1.5 (Q14524 whole entry): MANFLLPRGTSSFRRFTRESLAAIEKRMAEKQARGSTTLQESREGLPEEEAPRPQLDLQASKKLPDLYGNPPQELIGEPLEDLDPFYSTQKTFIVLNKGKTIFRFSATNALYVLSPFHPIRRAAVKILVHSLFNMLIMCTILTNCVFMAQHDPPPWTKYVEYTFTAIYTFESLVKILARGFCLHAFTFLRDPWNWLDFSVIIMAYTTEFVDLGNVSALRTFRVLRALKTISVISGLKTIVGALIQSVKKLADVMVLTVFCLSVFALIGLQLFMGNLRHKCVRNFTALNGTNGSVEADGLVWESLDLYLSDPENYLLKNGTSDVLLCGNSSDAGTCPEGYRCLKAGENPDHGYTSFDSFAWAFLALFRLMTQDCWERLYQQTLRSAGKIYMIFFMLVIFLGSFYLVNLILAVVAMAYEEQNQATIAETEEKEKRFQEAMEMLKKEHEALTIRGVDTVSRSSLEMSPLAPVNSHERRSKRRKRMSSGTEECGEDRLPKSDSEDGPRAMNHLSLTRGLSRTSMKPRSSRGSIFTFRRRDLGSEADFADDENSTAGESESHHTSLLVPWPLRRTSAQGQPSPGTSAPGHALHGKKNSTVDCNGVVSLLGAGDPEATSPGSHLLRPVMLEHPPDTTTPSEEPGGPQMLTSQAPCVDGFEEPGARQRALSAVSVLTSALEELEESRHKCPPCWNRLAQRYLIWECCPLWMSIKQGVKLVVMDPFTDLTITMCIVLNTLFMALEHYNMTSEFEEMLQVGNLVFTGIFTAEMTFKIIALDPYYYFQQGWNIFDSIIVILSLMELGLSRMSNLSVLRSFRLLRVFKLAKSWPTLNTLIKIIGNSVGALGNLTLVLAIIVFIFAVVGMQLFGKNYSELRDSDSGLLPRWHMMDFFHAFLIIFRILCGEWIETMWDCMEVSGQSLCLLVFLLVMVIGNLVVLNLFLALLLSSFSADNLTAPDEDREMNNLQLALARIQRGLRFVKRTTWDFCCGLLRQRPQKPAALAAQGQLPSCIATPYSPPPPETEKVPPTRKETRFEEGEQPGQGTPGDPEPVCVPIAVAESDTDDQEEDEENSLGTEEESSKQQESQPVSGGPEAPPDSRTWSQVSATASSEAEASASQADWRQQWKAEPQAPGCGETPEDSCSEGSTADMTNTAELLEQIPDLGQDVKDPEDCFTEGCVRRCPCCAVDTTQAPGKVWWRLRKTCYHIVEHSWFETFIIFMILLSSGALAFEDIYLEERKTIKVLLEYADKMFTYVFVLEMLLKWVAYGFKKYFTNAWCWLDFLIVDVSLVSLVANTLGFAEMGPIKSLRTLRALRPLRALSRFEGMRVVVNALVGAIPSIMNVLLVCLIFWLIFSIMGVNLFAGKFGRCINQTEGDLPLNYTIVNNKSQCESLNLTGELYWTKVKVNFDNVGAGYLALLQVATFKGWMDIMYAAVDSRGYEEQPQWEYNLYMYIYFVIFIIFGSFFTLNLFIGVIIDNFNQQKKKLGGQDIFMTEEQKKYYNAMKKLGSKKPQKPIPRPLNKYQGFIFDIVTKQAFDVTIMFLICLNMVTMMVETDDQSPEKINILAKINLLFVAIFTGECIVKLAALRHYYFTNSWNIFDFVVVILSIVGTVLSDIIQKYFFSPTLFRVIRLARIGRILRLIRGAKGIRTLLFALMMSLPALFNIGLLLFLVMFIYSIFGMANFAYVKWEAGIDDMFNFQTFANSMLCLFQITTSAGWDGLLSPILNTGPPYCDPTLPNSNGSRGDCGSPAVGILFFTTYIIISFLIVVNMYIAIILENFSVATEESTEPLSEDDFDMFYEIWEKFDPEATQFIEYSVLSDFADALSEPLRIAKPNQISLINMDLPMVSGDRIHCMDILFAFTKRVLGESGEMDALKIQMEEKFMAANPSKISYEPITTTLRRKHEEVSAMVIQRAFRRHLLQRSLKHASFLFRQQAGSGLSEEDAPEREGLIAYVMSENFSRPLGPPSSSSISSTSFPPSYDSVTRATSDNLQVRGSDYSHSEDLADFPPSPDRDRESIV

Consider `Cc1cc(C(F)(F)F)ccc1-c1ccc2c(c1)C(=O)N(Cc1ncccn1)CCO2` [II-145, 7-(2-methyl-4-(trifluoromethyl)phenyl)-4-(pyrimidin-2-ylmethyl)-3,4-dihydrobenzo[f][1,4]oxazepin-5(2H)-one], for which the inhibition at 1 µM was 19%. For the compound `Cc1cc(OC(F)(F)F)ccc1-c1ccc2c(c1)C(=O)N(Cc1ncccn1)CCO2` [II-146, 7-(2-methyl-4-(trifluoromethoxy)phenyl)-4-(pyrimidin-2-ylmethyl)-3,4-dihydrobenzo[f][1,4]oxazepin-5(2H)-one], the inhibition at 1 µM is 36%. With `O=C1c2cc(-c3ccc(OC(F)(F)F)cc3)ccc2OCCN1Cn1ccc(C(F)(F)F)n1` [II-148, 7-(4-(trifluoromethoxy)phenyl)-4-((3-(trifluoromethyl)-1H-pyrazol-1-yl)methyl)-3,4-dihydrobenzo[f][1,4]oxazepin-5(2H)-one], the inhibition at 1 µM came to 17%. Then `O=C1c2cc(-c3ccc(CC(F)(F)F)cc3)ccc2OCCN1Cc1ncccn1` [II-150, 4-(pyrimidin-2-ylmethyl)-7-(4-(2,2,2-trifluoroethyl)phenyl)-3,4-dihydrobenzo[f][1,4]oxazepin-5(2H)-one], with 27%; and `O=C1c2cc(-c3ccc(OC(F)(F)F)cc3)ccc2OCCN1Cc1ccn(C2CCCC2)n1` [II-152, 4-((1-cyclopentyl-1H-pyrazol-3-yl)methyl)-7-(4-(trifluoromethoxy)phenyl)-3,4-dihydrobenzo[f][1,4]oxazepin-5(2H)-one], with 23%.

`Cn1cnc(CN2CCOc3ccc(-c4ccc(OC(F)(F)F)cc4)cc3C2=O)c1` [II-154, 4-((1-methyl-1H-imidazol-4-yl)methyl)-7-(4-(trifluoromethoxy)phenyl)-3,4-dihydrobenzo[f][1,4]oxazepin-5(2H)-one]: the inhibition at 1 µM worked out at 25%. Then `O=C1c2cc(-c3ccc(OC(F)F)cc3)ccc2OCCN1Cc1ccccn1` [II-159, 7-(4-(difluoromethoxy)phenyl)-4-(pyridin-2-ylmethyl)-3,4-dihydrobenzo[f][1,4]oxazepin-5(2H)-one], with 28%; and `Cn1cc(CN2CCOc3ccc(-c4ccc(OC(F)(F)F)cc4)cc3C2=O)cn1` [II-160, 4-((1-methyl-1H-pyrazol-4-yl)methyl)-7-(4-(trifluoromethoxy)phenyl)-3,4-dihydrobenzo[f][1,4]oxazepin-5(2H)-one], with 48%; and `O=C1c2cc(-c3ccc(F)c(F)c3F)ccc2OCCN1Cc1ncccn1` [II-162, 4-(pyrimidin-2-ylmethyl)-7-(2,3,4-trifluorophenyl)-3,4-dihydrobenzo[f][1,4]oxazepin-5(2H)-one], with 20%. `O=C1c2cc(-c3ccc(F)c(F)c3)ccc2OCCN1Cc1ncccn1` [II-163, 7-(3,4-difluorophenyl)-4-(pyrimidin-2-ylmethyl)-3,4-dihydrobenzo[f][1,4]oxazepin-5 (2H)-one]: the inhibition at 1 µM was determined as 28%.

Take `O=C1c2cc(-c3ccc(OC(F)(F)F)cc3)ccc2OCCN1Cc1ncccc1F` [II-164, 4-((3-fluoropyridin-2-yl)methyl)-7-(4-(trifluoromethoxy)phenyl)-3,4-dihydrobenzo[f][1,4]oxazepin-5(2H)-one]: the inhibition at 1 µM amounted to 75%. With `O=C1c2cc(-c3ccc(OS(=O)(=O)C(F)(F)F)cc3)ccc2OCCN1Cc1ncccn1` [II-171, 4-(5-oxo-4-(pyrimidin-2-ylmethyl)-2,3,4,5-tetrahydrobenzo[f][1,4]oxazepin-7-yl)phenyl trifluoromethanesulfonate], the inhibition at 1 µM was found to be 24%. Under `Cc1cnc(CN2CCOc3ccc(-c4ccc(OC(F)(F)F)cc4)cc3C2=O)cn1` [II-172, 4-((5-methylpyrazin-2-yl)methyl)-7-(4-(trifluoromethoxy)phenyl)-3,4-dihydrobenzo[f][1,4]oxazepin-5(2H)-one] stands 33%.

As for `[2H]C1([2H])Oc2ccc(-c3ccc(OC(F)(F)F)cc3)cc2C(=O)N(Cc2ncccn2)C1([2H])[2H]` [II-174, 2,2,3,3-tetradeutero-4-(pyrimidin-2-ylmethyl)-7-(4-(trifluoromethoxy)phenyl)-3,4-dihydrobenzo[f][1,4]oxazepin-5(2H)-one], the inhibition at 1 µM came to 48%. Under `O=C1c2cc(-c3ccc(OC(F)(F)F)cc3)ccc2OCCN1CCNS(=O)(=O)c1ccccc1` [II-177, N-(2-(5-oxo-7-(4-(trifluoromethoxy)phenyl)-2,3-dihydrobenzo[f][1,4]oxazepin-4(5H)-yl)ethyl)benzenesulfonamide] stands 22%; under `CCS(=O)(=O)NCCN1CCOc2ccc(-c3ccc(OC(F)(F)F)cc3)cc2C1=O` [II-178, N-(2-(5-oxo-7-(4-(trifluoromethoxy)phenyl)-2,3-dihydrobenzo[f][1,4]oxazepin-4(5H)-yl)ethyl)ethanesulfonamide], 19%; under `O=C1c2cc(-c3ccc(OC(F)(F)F)cc3)ccc2OCCN1CCNS(=O)(=O)C1CC1` [II-179, N-(2-(5-oxo-7-(4-(trifluoromethoxy)phenyl)-2,3-dihydrobenzo[f][1,4]oxazepin-4(5H)-yl)ethyl)cyclopropanesulfonamide], 21%.

As for `O=C1c2cc(-c3ccc(OC(F)(F)F)cc3)ccc2OCCN1CCCS(=O)(=O)NC1CC1` [II-190, N-cyclopropyl-3-(5-oxo-7-(4-(trifluoromethoxy)phenyl)-2,3-dihydrobenzo[f][1,4]oxazepin-4(5H)-yl)propane-1-sulfonamide], the inhibition at 1 µM is 18%. `O=C1c2cc(-c3ccc(OC(F)(F)F)cc3)ccc2OCCN1CCCS(=O)(=O)N1CCC1` [II-191, 4-(3-(azetidin-1-ylsulfonyl)propyl)-7-(4-(trifluoromethoxy)phenyl)-3,4-dihydrobenzo[f][1,4]oxazepin-5(2H)-one]: the inhibition at 1 µM was 25%. Under `O=C(NCCN1CCOc2ccc(-c3ccc(OC(F)(F)F)cc3)cc2C1=O)c1ncccn1` [II-192, N-(2-(5-oxo-7-(4-(trifluoromethoxy)phenyl)-2,3-dihydrobenzo[f][1,4]oxazepin-4(5H)-yl)ethyl)pyrimidine-2-carboxamide] stands 15%; under `O=C1c2cc(-c3ccc(Oc4ccc(F)cc4)cc3)ccc2OCCN1Cc1ncccn1` [II-193, 7-(4-(4-fluorophenoxy)phenyl)-4-(pyrimidin-2-ylmethyl)-3,4-dihydrobenzo[f][1,4]oxazepin-5(2H)-one], 70%; under `O=C1c2cc(-c3ccc(Oc4ccccc4)cc3)ccc2OCCN1Cc1ncccn1` [II-194, 7-(4-phenoxyphenyl)-4-(pyrimidin-2-ylmethyl)-3,4-dihydrobenzo[f][1,4]oxazepin-5(2H)-one], 63%. `O=C1c2cc(-c3cccc(Oc4ccccc4)c3)ccc2OCCN1Cc1ncccn1` [II-195, 7-(3-phenoxyphenyl)-4-(pyrimidin-2-ylmethyl)-3,4-dihydrobenzo[f][1,4]oxazepin-5(2H)-one]: the inhibition at 1 µM is 66%. For the compound `O=C(c1ccccc1)N1CCOc2ccc(-c3ccc(OC(F)(F)F)cc3)cc2C1` [III-4, phenyl(7-(4-(trifluoromethoxy)phenyl)-2,3-dihydrobenzo[f][1,4]oxazepin-4(5H)-yl)methanone], the inhibition at 1 µM came out at 35%. With `CC1(C(=O)N2CCOc3ccc(-c4ccc(OC(F)(F)F)cc4)cc3C2)CC1` [III-10, (1-methylcyclopropyl)(7-(4-(trifluoromethoxy)phenyl)-2,3-dihydrobenzo[f][1,4]oxazepin-4(5H)-yl)methanone], the inhibition at 1 µM is 29%. Under `O=C(C1CC(F)(F)C1)N1CCOc2ccc(-c3ccc(OC(F)(F)F)cc3)cc2C1` [III-11, (3,3-difluorocyclobutyl)(7-(4-(trifluoromethoxy)phenyl)-2,3-dihydrobenzo[f][1,4]oxazepin-4(5H)-yl)methanone] stands 20%; under `O=C(c1cnccn1)N1CCOc2ccc(-c3ccc(OC(F)(F)F)cc3)cc2C1` [III-23, pyrazin-2-yl(7-(4-(trifluoromethoxy)phenyl)-2,3-dihydrobenzo[f][1,4]oxazepin-4(5H)-yl)methanone], 26%; under `O=C(c1cccnn1)N1CCOc2ccc(-c3ccc(OC(F)(F)F)cc3)cc2C1` [III-24, pyridazin-3-yl(7-(4-(trifluoromethoxy)phenyl)-2,3-dihydrobenzo[f][1,4]oxazepin-4(5H)-yl)methanone], 17%. Then `O=C(Cc1ncccn1)N1CCOc2ccc(-c3ccc(C(F)(F)F)cc3)cc2C1` [III-30, 2-(pyrimidin-2-yl)-1-(7-(4-(trifluoromethyl)phenyl)-2,3-dihydrobenzo[f][1,4]oxazepin-4(5H)-yl)ethanone], with 16%. Under `Cn1cncc1C(=O)N1CCOc2ccc(-c3ccc(C(F)(F)F)cc3)cc2C1` [III-32, (1-methyl-1H-imidazol-5-yl)(7-(4-(trifluoromethyl)phenyl)-2,3-dihydrobenzo[f][1,4]oxazepin-4(5H)-yl)methanone] stands 22%. In the case of `O=C(c1ncc[nH]1)N1CCOc2ccc(-c3ccc(C(F)(F)F)cc3)cc2C1` [III-33, (1H-imidazol-2-yl)(7-(4-(trifluoromethyl)phenyl)-2,3-dihydrobenzo[f][1,4]oxazepin-4(5H)-yl)methanone], the inhibition at 1 µM amounted to 37%. Consider `Cn1ccnc1C(=O)N1CCOc2ccc(-c3ccc(C(F)(F)F)cc3)cc2C1` [III-37, (1-methyl-1H-imidazol-2-yl)(7-(4-(trifluoromethyl)phenyl)-2,3-dihydrobenzo[f][1,4]oxazepin-4(5H)-yl)methanone], for which the inhibition at 1 µM came out at 41%. Then `C[C@@H]1CN(C(=O)c2ncccn2)Cc2cc(-c3ccc(OC(F)(F)F)cc3)ccc2O1` [III-38, (R)-(2-methyl-7-(4-(trifluoromethoxy)phenyl)-2,3-dihydrobenzo[f][1,4]oxazepin-4(5H)-yl)(pyrimidin-2-yl)methanone], with 28%.
